According to ChEMBL document CHEMBL3885881, “DrugMatrix”:

Species on record: Rattus norvegicus
Assay: DrugMatrix - Regimen: Daily Repeat
Type: toxicity, organism-based, Sprague-Dawley
Parameters: regimen Daily Repeat, gender Male, age 6-8 weeks
Conditions: in vivo, po, route oral GAVAGE, vehicle .5 % CMC; for BASOPHIL / EOSINOPHIL / ERYTHROCYTE COUNT / HEMATOCRIT / HEMOGLOBIN / LEUKOCYTE COUNT / LYMPHOCYTE / MEAN CORPUSCULAR HEMOGLOBIN / MEAN CORPUSCULAR HEMOGLOBIN CONCENTRATION / MEAN CORPUSCULAR VOLUME / MONOCYTE / NEUTROPHIL / PLATELET COUNT: tissue Blood; for ALANINE AMINOTRANSFERASE / ALBUMIN / ALKALINE PHOSPHATASE / ASPARTATE AMINOTRANSFERASE / BLOOD UREA NITROGEN / CARBON DIOXIDE / CHLORIDE / CHOLESTEROL / CREATINE PHOSPHOKINASE / CREATININE / GLUCOSE / LACTATE DEHYDROGENASE / LIPASE / PHOSPHORUS / POTASSIUM / SODIUM / TOTAL BILIRUBIN / TOTAL PROTEIN / URIC ACID: tissue Plasma
[1] = 0 mg/kg, 72 h, dose level Control, time 3 day
[2] = 0 mg/kg, 120 h, dose level Control, time 5 day
[3] = 47 mg/kg, 72 h, dose level Low, time 3 day
[4] = 47 mg/kg, 120 h, dose level Low, time 5 day
[5] = 1200 mg/kg, 72 h, dose level High, time 3 day
[6] = 1200 mg/kg, 120 h, dose level High, time 5 day

## Nc1ccn([C@H]2CC[C@@H](CO)O2)c(=O)n1 [ZALCITABINE]
[1]
  BASOPHIL: 0.17%
  EOSINOPHIL: 0.83%
  ERYTHROCYTE COUNT: 7.2 x10E6/uL
  HEMATOCRIT: 43.13%
  HEMOGLOBIN: 14.63 G/DL
  LEUKOCYTE COUNT: 9.05 x10E3/uL
  LYMPHOCYTE: 75.17%
  MEAN CORPUSCULAR HEMOGLOBIN: 20.35 pg
  MEAN CORPUSCULAR HEMOGLOBIN CONCENTRATION: 33.95 G/DL
  MEAN CORPUSCULAR VOLUME: 59.93 fL
  MONOCYTE: 2.83%
  NEUTROPHIL: 21.17%
  PLATELET COUNT: 1093.17 x10E3/uL
  ALANINE AMINOTRANSFERASE: 49.17 u/L
  ALBUMIN: 4.33 G/DL
  ALKALINE PHOSPHATASE: 366.5 u/L
  ASPARTATE AMINOTRANSFERASE: 86.33 u/L
  BLOOD UREA NITROGEN: 17 mg/dL
  CARBON DIOXIDE: 24.17 mmol/L
  CHLORIDE: 102.83 MEQ/L
  CHOLESTEROL: 78.33 mg/dL
  CREATINE PHOSPHOKINASE: 320.83 u/L
  CREATININE: 0.3 mg/dL
  GLUCOSE: 140.83 mg/dL
  LACTATE DEHYDROGENASE: 210 u/L
  LIPASE: 9.33 u/L
  PHOSPHORUS: 9.12 mg/dL
  POTASSIUM: 5.65 MEQ/L
  SODIUM: 144.17 MEQ/L
  TOTAL BILIRUBIN: 0.1 mg/dL
  TOTAL PROTEIN: 6.3 G/DL
  URIC ACID: 1.03 mg/dL
[2]
  BASOPHIL: 0.17%
  EOSINOPHIL: 1%
  ERYTHROCYTE COUNT: 7.02 x10E6/uL
  HEMATOCRIT: 43.12%
  HEMOGLOBIN: 14.18 G/DL
  LEUKOCYTE COUNT: 9.63 x10E3/uL
  LYMPHOCYTE: 72%
  MEAN CORPUSCULAR HEMOGLOBIN: 20.25 pg
  MEAN CORPUSCULAR HEMOGLOBIN CONCENTRATION: 32.95 G/DL
  MEAN CORPUSCULAR VOLUME: 61.43 fL
  MONOCYTE: 2.67%
  NEUTROPHIL: 24.5%
  PLATELET COUNT: 1028.5 x10E3/uL
  ALANINE AMINOTRANSFERASE: 42.5 u/L
  ALBUMIN: 4.2 G/DL
  ALKALINE PHOSPHATASE: 300.33 u/L
  ASPARTATE AMINOTRANSFERASE: 87.67 u/L
  BLOOD UREA NITROGEN: 17 mg/dL
  CARBON DIOXIDE: 24.33 mmol/L
  CHLORIDE: 99 MEQ/L
  CHOLESTEROL: 70.67 mg/dL
  CREATINE PHOSPHOKINASE: 891.33 u/L
  CREATININE: 0.3 mg/dL
  GLUCOSE: 139.67 mg/dL
  LACTATE DEHYDROGENASE: 289.83 u/L
  LIPASE: 8.83 u/L
  PHOSPHORUS: 9.5 mg/dL
  POTASSIUM: 5.55 MEQ/L
  SODIUM: 139 MEQ/L
  TOTAL BILIRUBIN: 0.0833 mg/dL
  TOTAL PROTEIN: 6.1 G/DL
  URIC ACID: 0.98 mg/dL
[3]
  BASOPHIL: 0.33%
  EOSINOPHIL: 1.67%
  ERYTHROCYTE COUNT: 7.03 x10E6/uL
  HEMATOCRIT: 42.67%
  HEMOGLOBIN: 14.33 G/DL
  LEUKOCYTE COUNT: 10.43 x10E3/uL
  LYMPHOCYTE: 70.67%
  MEAN CORPUSCULAR HEMOGLOBIN: 20.4 pg
  MEAN CORPUSCULAR HEMOGLOBIN CONCENTRATION: 33.57 G/DL
  MEAN CORPUSCULAR VOLUME: 60.7 fL
  MONOCYTE: 2.33%
  NEUTROPHIL: 25%
  PLATELET COUNT: 1049.33 x10E3/uL
  ALANINE AMINOTRANSFERASE: 49.33 u/L
  ALBUMIN: 4.27 G/DL
  ALKALINE PHOSPHATASE: 380.5 u/L
  ASPARTATE AMINOTRANSFERASE: 78.67 u/L
  BLOOD UREA NITROGEN: 18.33 mg/dL
  CARBON DIOXIDE: 22.33 mmol/L
  CHLORIDE: 101 MEQ/L
  CHOLESTEROL: 74.67 mg/dL
  CREATINE PHOSPHOKINASE: 442.33 u/L
  CREATININE: 0.27 mg/dL
  GLUCOSE: 147 mg/dL
  LACTATE DEHYDROGENASE: 216.67 u/L
  LIPASE: 9 u/L
  PHOSPHORUS: 9.3 mg/dL
  POTASSIUM: 5.95 MEQ/L
  SODIUM: 143.67 MEQ/L
  TOTAL BILIRUBIN: 0.1 mg/dL
  TOTAL PROTEIN: 6.27 G/DL
  URIC ACID: 0.87 mg/dL
[4]
  BASOPHIL: 0.33%
  EOSINOPHIL: 1%
  ERYTHROCYTE COUNT: 7.41 x10E6/uL
  HEMATOCRIT: 44.03%
  HEMOGLOBIN: 14.73 G/DL
  LEUKOCYTE COUNT: 11.23 x10E3/uL
  LYMPHOCYTE: 81.67%
  MEAN CORPUSCULAR HEMOGLOBIN: 19.83 pg
  MEAN CORPUSCULAR HEMOGLOBIN CONCENTRATION: 33.4 G/DL
  MEAN CORPUSCULAR VOLUME: 59.43 fL
  MONOCYTE: 2.33%
  NEUTROPHIL: 15.67%
  PLATELET COUNT: 1184 x10E3/uL
  ALANINE AMINOTRANSFERASE: 46 u/L
  ALBUMIN: 4.43 G/DL
  ALKALINE PHOSPHATASE: 323 u/L
  ASPARTATE AMINOTRANSFERASE: 95.67 u/L
  BLOOD UREA NITROGEN: 15.67 mg/dL
  CARBON DIOXIDE: 22.33 mmol/L
  CHLORIDE: 98.33 MEQ/L
  CHOLESTEROL: 68 mg/dL
  CREATINE PHOSPHOKINASE: 672 u/L
  CREATININE: 0.3 mg/dL
  GLUCOSE: 129 mg/dL
  LACTATE DEHYDROGENASE: 673.67 u/L
  LIPASE: 8.67 u/L
  PHOSPHORUS: 9.57 mg/dL
  POTASSIUM: 5.77 MEQ/L
  SODIUM: 140.67 MEQ/L
  TOTAL BILIRUBIN: 0.1 mg/dL
  TOTAL PROTEIN: 6.4 G/DL
  URIC ACID: 1.23 mg/dL
[5]
  BASOPHIL: 0.33%
  EOSINOPHIL: 1%
  ERYTHROCYTE COUNT: 7.16 x10E6/uL
  HEMATOCRIT: 42.4%
  HEMOGLOBIN: 14.27 G/DL
  LEUKOCYTE COUNT: 9.77 x10E3/uL
  LYMPHOCYTE: 80.33%
  MEAN CORPUSCULAR HEMOGLOBIN: 20 pg
  MEAN CORPUSCULAR HEMOGLOBIN CONCENTRATION: 33.73 G/DL
  MEAN CORPUSCULAR VOLUME: 59.27 fL
  MONOCYTE: 2.33%
  NEUTROPHIL: 16.33%
  PLATELET COUNT: 1274 x10E3/uL
  ALANINE AMINOTRANSFERASE: 63.67 u/L
  ALBUMIN: 4.3 G/DL
  ALKALINE PHOSPHATASE: 291.67 u/L
  ASPARTATE AMINOTRANSFERASE: 78 u/L
  BLOOD UREA NITROGEN: 15.33 mg/dL
  CARBON DIOXIDE: 22.67 mmol/L
  CHLORIDE: 103.67 MEQ/L
  CHOLESTEROL: 79 mg/dL
  CREATINE PHOSPHOKINASE: 509 u/L
  CREATININE: 0.3 mg/dL
  GLUCOSE: 141.33 mg/dL
  LACTATE DEHYDROGENASE: 255.33 u/L
  LIPASE: 9.33 u/L
  PHOSPHORUS: 10.23 mg/dL
  POTASSIUM: 5.83 MEQ/L
  SODIUM: 146.33 MEQ/L
  TOTAL BILIRUBIN: 0.1 mg/dL
  TOTAL PROTEIN: 6.17 G/DL
  URIC ACID: 1.33 mg/dL
[6]
  BASOPHIL: 0%
  EOSINOPHIL: 0.67%
  ERYTHROCYTE COUNT: 7.45 x10E6/uL
  HEMATOCRIT: 45%
  HEMOGLOBIN: 15 G/DL
  LEUKOCYTE COUNT: 9.43 x10E3/uL
  LYMPHOCYTE: 80%
  MEAN CORPUSCULAR HEMOGLOBIN: 20.1 pg
  MEAN CORPUSCULAR HEMOGLOBIN CONCENTRATION: 33.37 G/DL
  MEAN CORPUSCULAR VOLUME: 60.37 fL
  MONOCYTE: 2.33%
  NEUTROPHIL: 16.33%
  PLATELET COUNT: 957.67 x10E3/uL
  ALANINE AMINOTRANSFERASE: 49.33 u/L
  ALBUMIN: 4.1 G/DL
  ALKALINE PHOSPHATASE: 291.67 u/L
  ASPARTATE AMINOTRANSFERASE: 101.33 u/L
  BLOOD UREA NITROGEN: 15.33 mg/dL
  CARBON DIOXIDE: 22.67 mmol/L
  CHLORIDE: 99.67 MEQ/L
  CHOLESTEROL: 63.33 mg/dL
  CREATINE PHOSPHOKINASE: 865 u/L
  CREATININE: 0.3 mg/dL
  GLUCOSE: 138 mg/dL
  LACTATE DEHYDROGENASE: 744.67 u/L
  LIPASE: 8.33 u/L
  PHOSPHORUS: 9.43 mg/dL
  POTASSIUM: 5.67 MEQ/L
  SODIUM: 141 MEQ/L
  TOTAL BILIRUBIN: 0.1 mg/dL
  TOTAL PROTEIN: 6.23 G/DL
  URIC ACID: 0.9 mg/dL
